Laboratory results reported in ChEMBL document CHEMBL1201862, “PubChem BioAssay data set” (2004).
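Compound exposure: 48 hours, 5 concentrations, 96-well plates. GI50 marks 50% less growth.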 The source made the active and inactive calls. Cut-off read from the data, not from the text of the source: active = GI50 up to about 1.1 µM and inactive = higher.

What was measured:
Experiment in all cases: inhibition of tumour cell growth, NCI panel, 48 h
A549 = tested on: A549
ACHN = tested on: ACHN
DU-145 = tested on: DU-145
EKVX = tested on: EKVX
HL-60 = tested on: HL-60
HOP-62 = tested on: HOP-62
LOX IMVI = tested on: LOX IMVI
MDA-MB-231 = tested on: MDA-MB-231
MDA-MB-435 = tested on: MDA-MB-435
MOLT-4 = tested on: MOLT-4
NCI/ADR-RES = tested on: NCI/ADR-RES
OVCAR-3 = tested on: OVCAR-3
OVCAR-5 = tested on: OVCAR-5
OVCAR-8 = tested on: OVCAR-8
RPMI-8226 = tested on: RPMI-8226
SF-539 = tested on: SF-539
SK-OV-3 = tested on: SK-OV-3
SN12C = tested on: SN12C
SNB-19 = tested on: SNB-19
UACC-62 = tested on: UACC-62

SMILES | GI50 (A549) | GI50 (ACHN) | GI50 (DU-145) | GI50 (EKVX) | GI50 (HL-60) | GI50 (HOP-62) | GI50 (LOX IMVI) | GI50 (MDA-MB-231) | GI50 (MDA-MB-435) | GI50 (MOLT-4) | GI50 (NCI/ADR-RES) | GI50 (OVCAR-3) | GI50 (OVCAR-5) | GI50 (OVCAR-8) | GI50 (RPMI-8226) | GI50 (SF-539) | GI50 (SK-OV-3) | GI50 (SN12C) | GI50 (SNB-19) | GI50 (UACC-62)
C[C@]12Cc3cnc(-c4ccccc4)nc3C[C@@H]1CC[C@@H]1[C@@H]2CC[C@@]2(C)[C@H]1CC[C@]2(C)O | 12.8 µM (inactive) | 14.2 µM (inactive) | 17.9 µM (inactive) | 25.2 µM (inactive) | 17.9 µM (inactive) | 13.6 µM (inactive) | 4.6 µM (inactive) | 18.8 µM (inactive) | 20.8 µM (inactive) | 34.3 µM (inactive) | 15.4 µM (inactive) | 23.5 µM (inactive) | 14.3 µM (inactive) | 14.4 µM (inactive) | 5.06 µM (inactive) | 1.33 µM (inactive) | 18 µM (inactive) | 17.9 µM (inactive) | 18.5 µM (inactive) | 11.2 µM (inactive)
O=C1C2C=CC1C1C(=O)OC(=O)C21 (stereo not given) | > 100 µM (inactive) | > 100 µM (inactive) | > 100 µM (inactive) | > 100 µM (inactive) | > 100 µM (inactive) | > 100 µM (inactive) | > 100 µM (inactive) | > 100 µM (inactive) | > 100 µM (inactive) | > 100 µM (inactive) | > 100 µM (inactive) | > 100 µM (inactive) | > 100 µM (inactive) | > 100 µM (inactive) | > 100 µM (inactive) | > 100 µM (inactive) | > 100 µM (inactive) | > 100 µM (inactive) | > 100 µM (inactive) | > 100 µM (inactive)
Clc1cc2c(cc1Cl)CC(NCCN1CCCC1)CC2 (stereo not given) | 14.8 µM (inactive) | 17.9 µM (inactive) | 14.7 µM (inactive) | 18.7 µM (inactive) | 14.6 µM (inactive) | 16 µM (inactive) | 13.3 µM (inactive) | 15.1 µM (inactive) | 3.73 µM (inactive) | 20.5 µM (inactive) | 13.7 µM (inactive) | 17.1 µM (inactive) | 14.6 µM (inactive) | 16.7 µM (inactive) | 12.6 µM (inactive) | 13.6 µM (inactive) | 17.7 µM (inactive) | 15.8 µM (inactive) | 20.5 µM (inactive) | 2.87 µM (inactive)
COc1ccc(OC)c(Cc2cnc3nc(N)nc(N)c3c2C)c1 [PIRITREXIM ISETHIONATE] | < 0.01 µM (active) | < 0.01 µM (active) | 0.284 µM (active) | 19.5 µM (inactive) | < 0.01 µM (active) | 0.188 µM (active) | < 0.0142 µM (active) | 15.3 µM (inactive) | < 0.0435 µM (active) | < 0.0171 µM (active) | 0.989 µM (active) | 0.533 µM (active) | 16.1 µM (inactive) | < 0.0234 µM (active) | 0.173 µM (active) | 0.291 µM (active) | 11.3 µM (inactive) | 0.352 µM (active) | 0.236 µM (active) | 0.853 µM (active)
CCOC(=O)c1ccc(Nc2c3c(nc4ccccc24)CCCC3)cc1 | > 38.6 µM (inactive) | > 91.4 µM (inactive) | > 57.9 µM (inactive) | > 54.2 µM (inactive) | 3.22 µM (inactive) | 10.6 µM (inactive) | > 21.2 µM (inactive) | 26.6 µM (inactive) | 1.77 µM (inactive) | 3.22 µM (inactive) | > 30.3 µM (inactive) | > 100 µM (inactive) | > 60 µM (inactive) | 44.7 µM (inactive) | > 100 µM (inactive) | 48.9 µM (inactive) | > 66.2 µM (inactive) | > 100 µM (inactive) | 41 µM (inactive) | 30.3 µM (inactive)
